Tests used:
[1] = tested on: rat liver mitochondria; assay: Uptake of [3H] compound 1 by energised rat liver mitochondria
[2] = Octan-1-ol/PBS partition coefficient; format: physicochemical; details: 200 μM, room temperature, 1 h, means±SEM of three
Experimental: (§1) The IC50 values for inhibition of lipid peroxidation were determined in rat brain homogenates, and are means±SEM or range of determinations on 2–3 brain preparations. Octan-1-ol/PBS partition coefficients are means±SEM for three independent determinations. N.D. not determined. Partition coefficients were determined by mixing 200 μM of the compound in 2 ml water-saturated octanol-1-ol with 2 ml octanol-saturated-PBS at room temperature for 1 h, then the two layers were separated by brief centrifugation and their concentrations determined spectrophotometrically from standard curves prepared in PBS or octanol. To measure antioxidant efficacy four rat brains were homogenised in 15 ml 40 mM potassium phosphate (pH 7.4), 140 mM NaCl at 4° C., particulate matter was pelleted (1,000×g at 4° C. for 15 min) and washed once and the combined supernatants stored frozen. Aliquots were rapidly thawed and 5 mg protein suspended in 800 μl PBS containing antioxidant or ethanol carrier and incubated at 37° C. for 30 min. Thiobarbituric acid reactive species (TBARS) were quantitated at 532 nm by adding 200 μl conc. HClO4 and 200 μl 1% thiobarbituric acid to the incubation, heating at 100° C. for 15 min and then cooling and clarification by centrifugation (10,000×g for 2 min).

[3] = tested on: rat liver mitochondria; assay: Protection of mitochondrial function (membrane potential) from iron/ascorbate oxidative damage; format: biochemical; details: 5 μM, compared with Vitamin E
Experimental: Energised rat liver mitochondria were incubated with iron/ascorbate with no additions (stippled bars), 5 μM compound 1 (filled bars), 5 μM α-tocopherol. (open bars) or 5 μM TPMP (cross hatched bars), and then isolated and the membrane potential generated by respiratory substrates measured relative to control incubations in the absence of iron/ascorbate. Rat liver mitochondria were incubated at 25° C. in a shaking water bath in 2 ml medium containing 100 mM KCl, 10 mM Tris, pH 7.7, supplemented with rotenone (1.33 μg/ml), 10 mM succinate, 500 μM ascorbate and other additions. […] TPMP either 10 mM glutamate and malate, 10 mM succinate and rotenone, or 5 mM ascorbate/100 μM TMPD with rotenone and myxothiazol (2 μg/ml), incubated at 25° C. for 3 min then pelleted and the membrane potential determined as above and compared with an incubation that had not been exposed to oxidative stress.

[4] = tested on: rat liver mitochondria; assay: Effect of compound 1 on membrane potential and respiration rate of isolated mitochondria; details: at the concentrations that afford protection
Experimental: TPMP at 25° C. for 3 min. After the incubation mitochondria were pelleted by centrifugation and the [^3H] TPMP in the supernatant and pellet quantitated by scintilation counting and the membrane potential calculated assuming a volume of 0.5 μl/mg proteins and that 60% of intramitochondrial TPMP is membrane bound.

[5] = tested on: rat liver mitochondria; assay: Protection of mitochondria against oxidative damage (TBARS, protein carbonyls); format: biochemical
Experimental: Mitochondria were exposed to oxidative stress by incubation with iron/ascorbate and the effect of compound 1 on oxidative damage assessed by measuring TBARS (filled bars) and protein carbonyls (open bars). Rat liver mitochondria (10 mg protein) were incubated at 25° C. in a shaking water bath in 2 ml medium containing 100 mM KCl, 10 mM Tris, pH 7.7, supplemented with rotenone (1.33 μg/ml), 10 mM succinate, 500 μM ascorbate and other additions. After preincubation for 5 min, 100 μM FeSO4 was added and 45–55 min later duplicate samples were removed and assayed for TBARS or protein carbonyls.
Energised rat liver mitochondria were exposed to tert-butylhydroperoxide and the effect of compound 1 (filled bars), α-tocopherol (open bars), compound 1+333 nM FCCP (stippled bars) or the simple lipophilic cation bromobutyl triphenylphosphonium (cross hatched bars) on TBARS formation determined.

[6] = tested on: 143B cells; assay: Cell viability by lactate dehydrogenase release; format: cell-based, human; details: 24 h, LDH release, concentrations giving 2–4 mM intramitochondrial
Experimental: (§2) The next step was to determine whether compound 1 was accumulated by intact cells. […] A proportion of this uptake of compound 1 into cells was inhibited by blocking the plasma and mitochondrial membrane potentials (FIG. 9). This energisation-sensitive uptake corresponds to an intra mitochondrial concentration of compound 1 of about 2–4 mM, which is sufficient to protect mitochondria from oxidative damage.
Here, confluent 143B cells in 24 well tissue culture dishes were incubated with various concentrations of compound 1 for 24 h and cell viability measured by lactate dehydrogenase release.

[7] = tested on: 143B cells; assay: Uptake of compound 1 by intact cells; format: cell-based, human
Experimental: The mitochondrial specific accumulation of compound 1 also occurs in intact cells. This was measured as described by Burns and Murphy, 1997 and the accumulation was prevented by dissipating both the mitochondrial and plasma membrane potentials. […] Therefore the accumulation of compound 1 into cells is driven by the mitochondrial membrane potential.
as §2
Here 10^6 143B cells (closed symbols) or ρ° cells (open symbols) were incubated with 1 μM [3H] compound 1 and the compound 1 accumulation ratio determined. Human osteosarcoma 143B cells and a derived ρ° cell line lacking mitochondrial DNA were cultured in DMEM/10% FCS (foetal calf serum) supplemented with uridine and pyruvate under an atmosphere of 5% CO2/95% air at 37° C., grown to confluence and harvested for experiments by treatment with trypsin. To measure [^3H] compound 1 accumulation cells (10^6) were incubated in 1 ml HEPES-buffered DMEM. At the end of the incubation, cells were pelleted by centrifugation, the cell pellet and the supernatant prepared for scintillation counting and the accumulation ratio [compound 1/mg protein)/(compound 1/μl)]calculated.
Human osteosarcoma 143B cells were incubated in 1 ml HEPES-buffered DMEM with 1-50 μM compound 1 supplemented with 6–60 nCi/ml [^3H] compound 1. To determine the energistration-dependent uptake, parallel incubations with 12.5 μM oligomycin, 20 μM FCCP; 10 μM myxathiazol. 100 nM valinomycin and 1 mM ouabain were carried out. At the end of the incubation, cells were pelleted by centrifugation and prepared for scintillation counting and the energisation-sensitive uptake determined.

[8] = tested on: rat brain homogenates; assay: Inhibition of lipid peroxidation in rat brain homogenates (TBARS assay); format: biochemical; details: TBARS, read-out: concentration that inhibited oxidative stress by 50%
Experimental: The rat brain homogenates were incubated with or without various concentrations of the test compounds (compound 1; native Vitamin E (α-tocopherol), bromobutyl triphenylphosphonium bromide, Trolox (a water soluble form of Vitamin E) and compound 2, ie2-(2-bromoethyl)-3,4-dihydro-2,5,7,8-tetramethyl-2H-1-benzopyran-6-ol, the precursor of compound 1 (“Brom Vit E”)) and the oxidative damage occurring over the incubation was quantitated using the TBARS assay (Stocks et al., 1974, Clin Sci Mol Med 47,215–222). From this the concentration of compound required to inhibit oxidative damage by 50% was determined. In this system 210 nM compound 1 inhibited oxidative stress by 50% while the corresponding value for native Vitamin E was 36 nM. The value for bromobutyltriphenylphosphonium bromide, which contains the triphenylphosphonium moiety but not the antioxidant Vitamin E moiety was 47 μM. […] Further details of the experimental procedures and results are set out below.
as §1

SMILES: Cc1c(C)c2c(c(C)c1O)CCC(C)(CC[P+](c1ccccc1)(c1ccccc1)c1ccccc1)O2 (centres unmarked) [compound 1]
- time for reversal of accumulation by FCCP ([1]; FCCP added after accumulation): < 10 s
- effect of uncoupler FCCP on accumulation into mitochondria ([1]; addition of FCCP): blocked
- time for uptake into mitochondria ([1]; energised rat liver mitochondria): < 10 s
- accumulation ratio into mitochondria ([1]; energised rat liver mitochondria, membrane potential about 180 mV): about 6,000
- proportion membrane-bound within mitochondria ([1]; inferred from uptake of TPMP and compound 1 at the same membrane potential): about 84%
- intramitochondrial concentration ([1]; isolated mitochondria, range of concentrations of compound 1 (FIG. 2)): 4 to 8 mM
- slope of accumulation ratio of compound 1 relative to that of TPMP ([1]; range of membrane potentials, 10 μM compound 1, 1 μM TPMP, 3 min): 2.472
- Octanol:PBS partition coefficient [2]: 7.37 ± 1.56
- protection of mitochondrial function (ability to generate a membrane potential) [3]: far more effectively than Vitamin E itself
- damage to mitochondria [4]: not damaging to mitochondria
- protection of mitochondria against oxidative damage (lipid peroxidation and protein carbonyl formation) ([5]; mitochondria exposed to oxidative stress): protected them against oxidative damage
- antioxidant protection with uncoupler FCCP ([5]; mitochondria incubated with FCCP to prevent uptake): prevented
- toxicity to cells [6]: not toxic to cells
- intra mitochondrial concentration from energisation-sensitive uptake ([7]; 143B cells, 1 h incubation): 2 to 4 mM
- accumulation by cells containing defective mitochondria ([7]; cells without mitochondrial membrane potential): not accumulated
- accumulation by intact cells ([7]; intact 143B cells): rapidly accumulated
- IC50 [8]: 210 nM
